Reference: patent US8642588B2, “Short-acting benzodiazepine salts and their polymorphic forms” (priority 2006, dated 2014)
Converted amounts (≈) assume the structure as drawn. Like-named read-outs stand apart in the source and are kept apart here.

How the values were obtained:
Type in all cases: physicochemical
[1] = Solubility in water; settings: thermodynamic from solid, 25° C., maximum 10 mg/ml of parent free form
Protocol: This was measured by suspending enough compound in 0.25 ml of solvent (water) to give a maximum final concentration of 10 mg/ml of the parent free form of the compound. The suspension was equilibrated at 25° C. for 24 hrs followed by a pH check and filtration through a glass fibre C 96 well plate. The filtrate is then diluted down 101×. Quantitation was by HPLC with reference to a standard dissolved in DMSO at approx 0.1 mg/ml. Different volumes of the standard, diluted and undiluted tests were injected. The solubility was calculated by integration of the peak area found at the same retention time as the peak maximum in the standard injection. If there is sufficient solid in the filter plate the XRPD is normally checked for phase changes, hydrate formation, amorphization, crystallization etc.

[2] = Solid-state stability study of compound of formula (I) (appearance, HPLC content); settings: 34 days
Protocol: Method/Technique. 2 mg samples of compound of formula (I), accurately weighed, were placed in 4-mL clear glass screw-cap vials. Samples were tested at initial and after 34 days stored at 5° C./Ambient Relative Humidity (AMRH) Closed, 30° C./60% RH Closed, 40° C./75% RH Open and 60° C./AMRH Closed.
Samples were inspected visually for appearance. Compound of formula (I) content values were determined by the HPLC method in Table 1. The % weight/weight (% w/w) values were measured relative to standard samples of compound of formula (I) Batch U12438/79/1. The % area values were obtained by dividing the compound of formula (I) peak area by the total peak area.

[3] = Solubility in organic solvents; settings: organic solvent or mixture, read-out: Min solvent required (solubility)
Protocol: The solubility of the compound of formula (I) was determined in a wide range of organic solvents.

[4] = pKa determination (potentiometric titration, Sirius GlpKa); settings: MeOH:H2O mixtures, extrapolated to 0% co-solvent, free base
Protocol: Two basic centres of the free base of the compound were measured for pKa. […] The pKa of the basic centre of the imidazole ring was measured to be 4.53.
pka determination was performed on a Sirius GlpKa instrument with D-PAS attachment. Measurements were made by potentiometric titration in MeOH:H2O mixtures at 25° C. The titration media was ionic strength adjusted with 0.15M KCl. The values found in the MeOH:H2O mixtures were extrapolated to 0% co-solvent via a Yasuda-Shedlovsky extrapolation.

COC(=O)CC[C@@H]1N=C(c2ccccn2)c2cc(Br)ccc2-n2c(C)cnc21 [LJC-039-034-1]
solubility at 24 h [1]: 7800 µg/mL (≈ 17.8 mM)

COC(=O)CC[C@@H]1N=C(c2ccccn2)c2cc(Br)ccc2-n2c(C)cnc21 [compound of formula (I), Methyl 3-[(4S)-8-bromo-1-methyl-6-(2-pyridinyl)-4H-imidazol[1,2-a][1,4]benzodiazepin-4-yl]propanoate]
Appearance ([2]; 40 C./75% RH Open): Deliquesced yellow mass on bottom
Appearance ([2]; 60 C./AMRH Closed): Deliquesced dark yellow to orange
solubility ([3]; acetone): 214 mg/mL
solubility ([3]; acetonitrile): 362 mg/mL
solubility ([3]; ethanol): 324 mg/mL
solubility ([3]; ethyl acetate): 218 mg/mL
solubility ([3]; methanol): 446 mg/mL
solubility ([3]; propan-2-ol): 454 mg/mL
solubility ([3]; tetrahydrofuran): 311 mg/mL
solubility ([3]; toluene): 460 mg/mL
pKa ([4]; basic centre of the imidazole ring): 4.53
pKa ([4]; basic centre of the pyridine ring): 1.99
